The source of these data is ChEMBL document CHEMBL3612022, “Regioselectively controlled synthesis of 3(5)-(trifluoromethyl)pyrazolylbenzenesulfonamides and their effects on a pathological pain model in mice” (Eur J Med Chem, 2015).

Active and inactive are the calls of the source.

Series [1] has as its system Mus musculus. Nature of the series: Antihyperalgesic effect in Swiss mouse assessed as inhibition of CFA-induced paw withdrawal threshold at 300 mg/kg, po after 2 hrs. The format is functional.
For series [2], the system named is Mus musculus. Nature of the series: Locomotor activity in Swiss mouse assessed as motor impairment at 300 mg/kg, po by open-field test. As to conditions: in vivo. The format is toxicity, organism-based.
Series [3] deals with Mus musculus. The series can be described thus: Antiedematogenic effect in Swiss mouse assessed as inhibition of CFA-induced paw edema at 300 mg/kg, po after 2 hrs. The format is functional.
Series [4] deals with Mus musculus. Nature of the series: Locomotor activity in Swiss mouse assessed as motor impairment at 300 mg/kg, po by rotarod test. The format is toxicity, organism-based. As to conditions: in vivo.
For series [5], the system named is Mus musculus. The series can be described thus: Antihyperalgesic effect in po dosed Swiss mouse assessed as inhibition of CFA-induced paw withdrawal threshold after 2 hrs. The format is functional.
For series [6], the system named is Mus musculus. The series can be described thus: Antihyperalgesic effect in Swiss mouse assessed as inhibition of CFA-induced paw withdrawal threshold at 300 mg/kg, po after 0.5 to 6 hrs. The format is functional, organism-based.
In series [7] the test system is Mus musculus. Nature of the series: Antiedematogenic effect in Swiss mouse assessed as inhibition of CFA-induced paw edema at 300 mg/kg, po after 1 to 6 hrs. The format is functional, organism-based.

A word on the inhibition in vivo: it is the share of the control response that was lost under treatment. On to `COc1ccc(C2=NN(c3ccc(S(N)(=O)=O)cc3)C(O)(C(F)(F)F)C2)cc1` (stereo not drawn), for which the inhibition result with Mus musculus [1] is “inactive”. In addition, the Activity entry in the series on Mus musculus [2] and with Mus musculus [4] was “Non-toxic” each time. In addition, in the series with Mus musculus [3], the inhibition in vivo at 300 mg/kg stood at 46%.

For the compound `NS(=O)(=O)c1ccc(N2N=C(c3ccc(Cl)cc3)CC2(O)C(F)(F)F)cc1` (stereo not drawn), in the series on Mus musculus [1], the inhibition in vivo at 300 mg/kg was determined as 57%. For the same compound, the Activity entry in the series on Mus musculus [2] and with Mus musculus [4] was “Non-toxic” each time.

Consider `NS(=O)(=O)c1ccc(N2N=C(c3ccco3)CC2(O)C(F)(F)F)cc1` (stereo not drawn), for which the inhibition result in the series on Mus musculus [1] is “inactive”. In addition, the Activity entry in the series on Mus musculus [2] and with Mus musculus [4] was “Non-toxic” in each case. In addition, the inhibition in vivo at 300 mg/kg with Mus musculus [3] amounted to 48%.

For the compound `Cc1ccc(-c2cc(C(F)(F)F)nn2-c2ccc(S(N)(=O)=O)cc2)cc1` [CELECOXIB], the inhibition in vivo at 300 mg/kg came to 77% with Mus musculus [1] and 53% in the series with Mus musculus [3]. Besides, in the series on Mus musculus [5], the IC was found to be 652.1 mg/kg. The inhibition entry with Mus musculus [6] is “Active”.

As to `Cc1ccc(C2=NN(c3ccc(S(N)(=O)=O)cc3)C(O)(C(F)(F)F)C2)cc1` (stereo not drawn), the inhibition result with Mus musculus [7] and with Mus musculus [6] was “Active” each time. The inhibition in vivo at 300 mg/kg in the series on Mus musculus [1] stood at 64%; in the series on Mus musculus [3], 45%. The IC in the series on Mus musculus [5] was determined as 539.3 mg/kg. Moreover, the Activity result with Mus musculus [2] and in the series with Mus musculus [4] was “Non-toxic” each time.

Take `NS(=O)(=O)c1ccc(N2N=C(c3ccc(Br)cc3)CC2(O)C(F)(F)F)cc1` (stereo not drawn): the figures for the inhibition in vivo at 300 mg/kg in the series with Mus musculus [1] and in the series with Mus musculus [3] were 57% and 46%, respectively. Moreover, the Activity entry in the series with Mus musculus [2] and with Mus musculus [4] was “Non-toxic” each time.

Turning to `NS(=O)(=O)c1ccc(N2N=C(c3ccccc3)CC2(O)C(F)(F)F)cc1` (stereo not drawn), the inhibition in vivo at 300 mg/kg with Mus musculus [1] was 52%; in the series on Mus musculus [3], 44%. Moreover, the Activity result in the series with Mus musculus [2] and with Mus musculus [4] was “Non-toxic” in each case.

`NS(=O)(=O)c1ccc(N2N=C(c3ccc(F)cc3)CC2(O)C(F)(F)F)cc1` (stereo not drawn): the inhibition in vivo at 300 mg/kg with Mus musculus [1] is 62%. Also, the Activity entry in the series on Mus musculus [2] and with Mus musculus [4] was “Non-toxic” each time.
